# Data published in patent US8158596B2, “Materials and methods for FOXP3 tumor suppression” (The Regents of the University of Michigan, priority 2007, dated 2012).
# Columns and labels:
# [1] = test system: FOXP3 gene; assay: FOXP3 gene induction in prostate cancer cell lines by methyltransferase inhibitor; format: cell-based, human; conditions: prostate cancer cell lines PC3 and Du145
# Experimental: Using a quantitative pyrosequencing method for FOXP3 analysis, the level of methylation in both the intronic CpG motif and the CpG island was quantitated in the promoter region of FOXP3, using DNA from 17 cases of micro-dissected normal and cancerous tissues. […] Morover, the increase in methylation strongly correlate with reduction of FOXP3 expression. To verify the significance of DNA methylation, prostate cancer cell lines PC3 and Du145 were treated with a methyltransferase inhibitor (5-aza-2′-deoxycytidine (5-AZA)).
# [2] = target: T1, p38 (Mus musculus, UniProt P47811); format: cell-based; conditions: 4T1 cells; anisomycin 1 μg/ml, PMA 0.5 μg/ml
# T1 construct: Western blots of the cell lysates were obtained using antibodies specific for phospho-ATF2, phospho-p38; endogenous in cells; host or cells: 4T1 mouse mammary tumor cells
# T1 sequence (P47811 whole entry): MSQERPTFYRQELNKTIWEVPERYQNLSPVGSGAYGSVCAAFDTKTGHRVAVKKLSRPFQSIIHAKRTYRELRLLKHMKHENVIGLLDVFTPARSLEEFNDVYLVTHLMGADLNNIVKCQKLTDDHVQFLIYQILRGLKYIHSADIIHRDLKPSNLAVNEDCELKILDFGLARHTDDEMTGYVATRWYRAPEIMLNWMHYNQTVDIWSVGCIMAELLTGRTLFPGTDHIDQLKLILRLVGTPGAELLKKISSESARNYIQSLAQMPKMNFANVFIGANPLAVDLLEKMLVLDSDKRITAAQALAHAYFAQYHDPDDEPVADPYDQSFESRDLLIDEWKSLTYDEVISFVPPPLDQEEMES
# Experimental: (§1) 4T1 cells were treated with either vehicle control, anisomycin (1 μg/ml) or PMA (0.5 μg/ml). Western blots of the cell lysates were obtained using antibodies specific for phospho-ATF2, phospho-p38, ATF2, phospho-JNK1/2, phospho-c-Jun. Levels of beta-actin were used as loading controls.
# Cells of a mammary tumor cell line were treated with anisomycin in conjunction with inhibitors of overlapping specificity. […] Western blots of the cell lysates were obtained using antibodies specific for phosphor-ATF2, phospho-p38, ATF2, phospho-JNK1/2, phospho-c-Jun. Levels of beta-actin were used as loading controls.
# [3] = test system: ATF2; assay: Western blot of phospho-ATF2 in 4T1 cells; format: cell-based, mouse; conditions: for activation of ATF2: anisomycin 1 μg/ml, PMA 0.5 μg/ml
# Experimental: as §1, with “To identify the mechanism by which anisomycin induced FoxP3, the activation of ATF2, p38, and JNK upon treatment with either anisomycin or PMA was compared. 4T1” for “4T1”
# (§2) Cells of a mammary tumor cell line were treated with anisomycin in conjunction with inhibitors of overlapping specificity. Specifically, 4T1 cells were treated with vehicle control, anisomycin (1 μg/ml) or PMA (0.5 μg/ml) in the presence or absence of inhibitors (2 μg/ml): SP10096 (SP), SB203580 (SB), and PD9786 (PD). Western blots of the cell lysates were obtained using antibodies specific for phosphor-ATF2, phospho-p38, ATF2, phospho-JNK1/2, phospho-c-Jun. Levels of beta-actin were used as loading controls.
# (§3) In order to study the mechanism of ATF2/c-Jun-mediated induction of FoxP3, chromatin immunoprecipitation (ChIP) was carried out as described in (Im et al., Nat Med 5: 412-417 (1999)) to identify an anisomycin-inducible binding site of the FoxP3 locus. Briefly, 4TI cells were treated with vehicle or anisomycin for 2 hours. The cells were sonicated and the chromatin was fixed with 1% paraformaldehyde. Anti-phospho-c-Jun or anti-phosphor-ATF2 antibodies or control rabbit IgG were used to precipitate chromatin associated with these proteins. The amounts of the specific DNA fragments were quantitated by real-time PCR and normalized against the genomic DNA preparation from the same cells. […] Untreated 4T1 cells barely had detectable amounts of phospho-ATF2 and phospho-c-Jun in the nuclei.
# [4] = test system: JNK; assay: Western blot of phospho-JNK1/2 in 4T1 cells; format: cell-based, mouse; conditions: for activation of JNK: anisomycin 1 μg/ml, PMA 0.5 μg/ml
# Experimental: as §1, with “To identify the mechanism by which anisomycin induced FoxP3, the activation of ATF2, p38, and JNK upon treatment with either anisomycin or PMA was compared. 4T1” for “4T1”
# as §2
# [5] = test system: c-Jun; assay: Western blot of phospho-c-Jun in 4T1 cells; format: cell-based, mouse; conditions: for activation of c-Jun: anisomycin 1 μg/ml, PMA 0.5 μg/ml
# Experimental: as §1, with “To identify the mechanism by which anisomycin induced FoxP3, the activation of ATF2, p38, and JNK upon treatment with either anisomycin or PMA was compared. 4T1” for “4T1”
# as §2, §3
# [6] = test system: FoxP3; assay: Anisomycin-induced FoxP3 induction in 4T1 cells with kinase inhibitors; format: cell-based, mouse; conditions: inhibitor 2 μg/ml with anisomycin 1 μg/ml
# [7] = test system: FOXP3-encoding mRNA; assay: Induction of FOXP3-encoding mRNA in cancer cell lines (RT-PCR); format: cell-based; conditions: thymoma BW5147, thymic epithelial cell 61.7, breast cancer TSA, treated 14 hr to 2 days
# Experimental: A method was developed to induce FOXP3 expression in cancer cells by activating JNK, P38 and ATF2. Briefly, breast cancer and thymoma cell lines were treated with activators of JNK, P38 and ATF2, such a emetine and anisomycin for 14 hr to 2 days. The cells were analyzed for expression of FOXP3-encoding mRNA by RT-PCR.
# [8] = test system: breast cancer cell lines MCF-7, BT474, TSA; assay: Killing of breast cancer cell lines / MTT viability assay; format: cell-based, human, mouse
# Experimental: Given the impact of FOXP3 activity on tumor growth and cell death, these compounds were also tested for their ability to kill cancer cells. […] The IC50 ranges between 30-100 ng/ml.
# To determine whether anisomycin treatment causes apoptosis of breast cancer cells, the cytotoxic effect of anisomycin on several of breast cancer cell lines was measured by MTT assay. 10^4 cells/well of mouse cell line (TSA) or human breast cancer cell lines (TB474 or MCF7) were cultured in the presence of 25, 50, 100, 200, 400, or 800 ng/ml anisomycin for 48 hours. The amounts of viable cells were determined by MTT assay, with viability of the untreated cells defined as 100%. Both mouse (TSA) and human breast cancer cell lines (BT474, MCF-7) were highly susceptible to anisomycin, with an IC50 between 50-100 […].
# [9] = test system: TSA cells; assay: Apoptosis: activated caspase 3 staining and DNA content; format: cell-based, mouse
# Text: Cells were stained for activated Capsase 3 and also tested for DNA contents. The % of gated cells was apoptotic based on their sub-2C DNA contents.
# [10] = test system: FOXP3 transcripts; assay: FOXP3 transcripts in primary mammary epithelial cultures of ATF2+/+ and ATF2-/- mice; format: cell-based, mouse
# Experimental: ATF2± mice were obtained from the frozen embryo bank of the Jackson Laboratories and were crossed to produce ATF2+/+ and the ATF2−/− mice. […] Two independent primary cultures were obtained from two ATF2−/− females. Specifically, mouse mammary fat pads were removed from 6 to 8-week-old virgin female mice and minced into small pieces. After collagenase digestion at 37° C. in a shaking incubator in DMEM medium supplemented with 5% fetal calf serum (FBS), cells were sieved through a 70-μm cell strainer (BD Falcon) to obtain a single cell suspension. The cells were cultured in DMEM medium supplemented with 10% FBS and 10 ng/ml epithelial growth factor (EGF). At day 3 of culture, fibroblast cells were removed by a short digestion with 0.05% trypsin-EDTA as less adherent cells.
# The primary cultures were then assayed for expressioin of FOXP3 protein by Western blotting cell lysates of the cultures with antibodies specific for FOXP3. The primary transcripts also were assayed for expression of FOXP3 by real-time PCR.
# [11] = test system: FoxP3 locus P2 and P10 sites; assay: ChIP of phospho-ATF2/phospho-c-Jun binding at the FoxP3 locus in 4T1 cells; format: cell-based, mouse
# Experimental: as §3
# In order to identify the FoxP3 sequence associated with p-ATF2 and p-c-Jun, the 5′ sequence of the FoxP3 gene was analyzed and 14 potential AP1 and CREB sites were identified. […]
# [12] = test system: P10 probe (AP1 site of FoxP3 enhancer); assay: Electrophoretic mobility shift of P10 AP1 probe with 4T1 nuclear extracts; format: cell-based, mouse; conditions: nuclear extracts of anisomycin-treated 4T1 cells
# Text: Sequencing comparison identified a typical AP1 site within the P10. […] The sequence of nonmutated probe (P10) is […] (bold letters for core AP1 sequence; SEQ ID NO: 173), that for P10-Mt1 is […] (bold letter indicate mutations; SEQ ID NO: 174), while that for P10-Mt2 is […] (SEQ ID NO: 175).
# [13] = test system: TSA tumor cells; assay: TSA tumor in mammary fat pads of BALb/c mice; format: in vivo; conditions: intraperitoneal, every 3 days for 8 times, I mg/mouse
# Experimental: To test whether induction of FoxP3 by ATF2-FoxP3 pathway can be explored for breast cancer therapy, cells (5×10^5) of the TSA cell line were injected into the mammary fat pads of BALb/c mice. Five days later, when the cancer cells established locally, the mice were intraperitoneally treated with vehicle control or anisomycin every 3 days for 8 times at a dose of I mg/mouse.
# [14] = test system: FOXP3; assay: FOXP3 silencing in HPEC: FOXP3 mRNA; format: cell-based, human; conditions: one week after infection
# Experimental: (§4) To determine whether the endogenous FOXP3 in prostate epithelial cell lines is responsible for MYC repression, the FOXP3 locus was silenced with a lentiviral vector encoding shRNA for FOXP3. Human Prostate Epithelial Cells (HPEC) were purchased from Lonza Group Ltd (Switzerland) and were cultured with medium. An early passage of the HPEC were infected with lentivirus expressing either control shRNA or FOXP3 shRNA vector as described in Zuo et al., 2007, supra. Uninfected cells were removed by drug selection. At one week after infection, the levels of FOXP3 or MYC mRNA were quantitated by RT-PCR. Western blotting was also carried out using anti-FOXP3 or -MYC antibodies. Beta actin was used as a loading control.
# [15] = test system: MYC; assay: FOXP3 silencing in HPEC: MYC transcript; format: cell-based, human; conditions: one week after infection
# Experimental: as §4
# [16] = inhibitor 2 μg/ml with anisomycin 1 μg/ml
compound,measurement,setting,value
"Nc1ncn([C@H]2C[C@H](O)[C@@H](CO)O2)c(=O)n1 [5-AZA, 5-aza-2′-deoxycytidine]",induction of the FOXP3 gene,[1],two-fold
CCCCCCCCCCCCCC(=O)O[C@@H]1[C@@H](C)[C@@]2(O)[C@@H](C=C(CO)C[C@]3(O)C(=O)C(C)=C[C@@H]23)[C@@H]2C(C)(C)[C@]12OC(C)=O [PMA],activation of p38,[2],activated
same,activation of ATF2,[3],activated
same,activation of JNK,[4],failed to activate
same,activation of c-Jun,[5],failed to activate
C[S+]([O-])c1ccc(-c2nc(-c3ccncc3)c(-c3ccc(F)cc3)[nH]2)cc1 (stereo not shown) [SB],inhibition of ATF2 activation by anisomycin,[3]; [16],only partially
same,inhibition of JNK activation by anisomycin,[4]; [16],only partially
same,inhibition of anisomycin-induced FoxP3 induction,[6],"reduced, but did not eliminate"
COc1ccc(C[C@H]2NC[C@H](O)[C@H]2OC(C)=O)cc1 [anisomycin],induction of FOXP3-encoding mRNA,[7],strong induction
same,IC50 (cancer cell killing),[8]; 48 hours,0.03 to 0.1 µg/mL
same,killing of cancer cells,[8]; within 48 hours,killed a substantial percentage of cancer cells
same,active caspase 3 in cells with less than 2C DNA contents,[9],increased expression of active caspase 3
same,activation of p38,[2],activated
same,activation of ATF2,[3],activated
same,phospho-ATF2 in the nuclear fraction,[3]; anisomycin 2 hours,major increase
same,activation of JNK,[4],activation
same,activation of c-Jun,[5],activation
same,phospho-c-Jun in the nuclear fraction,[5]; anisomycin 2 hours,major increase
same,FOXP3 transcripts in ATF2+/+ epithelial cultures,[10]; ATF2+/+ primary mammary epithelial cells,further induced
same,FoxP3 transcripts in ATF2-/- cells,[10]; ATF2-/- primary mammary epithelial cells,completely refractory
same,inducibility of ATF2/cJun association with P2 site (ChIP),"[11]; P2, 4.8 kb 5′ of exon 1",not inducible
same,enhancement of ATF2/cJun binding to P10 site (ChIP),"[11]; P10, 4.2 kb 3′ of exon 1",more than 2 fold
same,binding of nuclear extracts to nonmutated P10 probe (EMSA),[12],strong interaction
same,side effects,[13],did not give obvious side effects
same,growth of TSA tumor cells in syngeneic mammary pad,[13]; from day 5,nearly completely abrogated
CC[C@H]1CN2CCc3cc(OC)c(OC)cc3[C@@H]2C[C@@H]1C[C@H]1NCCc2cc(OC)c(OC)cc21 [emetine],induction of FOXP3-encoding mRNA,[7],strong induction
FoxP3 shRNA: lentiviral shRNA specific for FoxP3 used in mouse TSA cells (SEQ ID NO: 168) (AAGCCATGGCAATAGTTCCTT),expression of FOXP3 mRNA,[14],major reduction
same,level of MYC transcript,[15],significantly elevated
